Publication PMC9820444, “Design and Synthesis of Acridine-Triazole and Acridine-Thiadiazole Derivatives and Their Inhibitory Effect against Cancer Cells” (International Journal of Molecular Sciences, 2022)
Where two headings read alike, the source gives them in different places. Marks after values point to notes of the source that are not given here.

How the values were obtained:
[1] = system: human foreskin fibroblasts (HFF); assay: MTT antiproliferative assay, HFF; assay type: cell-based; details: read-out: Effect against cell viability (IC50), HFF
Method: (§1) All newly synthesized acridinyl derivatives (4–6) were screened for their anticancer activities in comparison to the reference compounds, 5-FU and cis-platinum. Compounds 4–6 were tested for their in vitro antitumor activities against HFF, MGC-803, BEL-7404, NCI-H460, and T24 tumor cell lines, and human normal liver cells (LO2), and the results are shown in Table 1. Most of the compounds had strong selective potency against MGC-803 and T24 cancer cells. […] In the T24 cell line assay, many compounds, especially the series of compound 4, had significant activity against T24. This implies that there is a significant increase in potency after the introduction of the aroyl thiourea group. […] To our delight, most 1,2,4-triazolethiones (5) and 1,2,4-thiadiazoles (6) have low toxicity to LO2 compared with the positive control.
(§2) Test samples, including compounds 4–6 and commercial classical anticancer drugs (5-FU and cis-platinum), were screened for their anti-cancer activity against HFF human foreskin fibroblast cells, MGC-803 human gastric cancer cells, BEL-7404 human hepatocellular carcinoma cells, NCI-H460 human large cell carcinoma cells, and T24 human bladder carcinoma cells using the 3-(4,5-dimethylthiazol-2-yl)-2,5-diphenyltetrazoliumbromide (MTT) assay method cited in the literature. The initial concentration of all the test samples was 100 μg/mL, which was serially diluted in complete medium with ten-fold dilutions to give six concentrations per compound. Their cytotoxicity was determined in 96-well flat bottomed microtiter plates. All the test samples were tested in triplicate. The results were expressed as the drug concentration that inhibited cell growth by 50% as compared to the controls (IC50). The IC50 values were calculated from regression lines obtained from the percent cell growth inhibition plotted as a function of the logarithm of the dose.

[2] = system: human gastric cancer cells-803 (MGC-803); assay: MTT antiproliferative assay, MGC-803; assay type: cell-based; details: read-out: Effect against cell viability (IC50), MGC-803
Method: as §1, §2

[3] = system: hepatocellular carcinoma bel-7404 (BEL-7404); assay: MTT antiproliferative assay, BEL-7404; assay type: cell-based, human; details: read-out: Effect against cell viability (IC50), BEL-7404
Method: as §1, §2

[4] = system: large cell lung cancer cells (NCI-H460); assay: MTT antiproliferative assay, NCI-H460; assay type: cell-based, human; details: read-out: Effect against cell viability (IC50), NCI-H460
Method: as §1, §2

[5] = system: bladder cancer cells (T24); assay: MTT antiproliferative assay, T24; assay type: cell-based, human; details: read-out: Effect against cell viability (IC50), T24
Method: as §1, §2

[6] = system: human normal liver cells (LO2); assay: Cytotoxicity against normal liver cells LO2; assay type: cell-based; details: MTT, read-out: Effect against cell viability (IC50), LO2
Method: as §1, §2

zebrafish embryos = details: for MAR (malformation rate) / MOR (mortality rate): zebrafish embryos 72 hpf; for total mortality and malformation rate: zebrafish embryos, 2.0 mg.L^−1
Method: In this experiment, 2% DMSO was used to dissolve the target products, and the abnormal rate (MAR) and mortality rate (MOR) of zebrafish embryos (72 hpf) were used for statistics.
The zebrafish embryos were collected at 6 hpf and randomly divided into naive control (embryos maintained in distilled water), vehicle control (embryos treated with 2% DMSO), and drug groups. Stock solutions of all drugs were prepared in 2% DMSO as a solubilizing agent and diluted to three concentrations (0.5 mg/mL, 1 mg/mL, and 2 mg/mL). Each group had 20 embryos per test concentration. […] Each compound was evaluated in three independent biological experiments.

| SMILES | IC50 [1] | IC50 ([2]; MTT) | IC50 [3] | IC50 [4] | IC50 [5] | IC50 [6] | MAR (malformation rate) (zebrafish embryos; 1 mg/mL) | MOR (mortality rate) (zebrafish embryos; 1 mg/mL) | MAR (malformation rate) (zebrafish embryos; 1.5 mg/mL) | MOR (mortality rate) (zebrafish embryos; 1.5 mg/mL) | MAR (malformation rate) (zebrafish embryos; 2 mg/mL) | MOR (mortality rate) (zebrafish embryos; 2 mg/mL) | total mortality and malformation rate (zebrafish embryos) | IC50 ([1]; Homo sapiens, Fibroblast) | IC50 ([2]; Homo sapiens, MGC-803, MTT) | IC50 ([3]; Homo sapiens) | IC50 ([4]; Homo sapiens) | IC50 ([5]; Homo sapiens) | IC50 ([6]; Homo sapiens) |
| --- | --- | --- | --- | --- | --- | --- | --- | --- | --- | --- | --- | --- | --- | --- | --- | --- | --- | --- | --- |
| COc1ccc2nc3ccccc3c(NC(=S)NNC(=O)c3ccccc3)c2c1 [4b, 1-2′-methoxyl acridinyl-3-benzoyl thiosemicarbazides] | 72.6 ± 3.57 µM | 14.5 ± 2.06 µM | 25.8 ± 2.83 µM | 42.3 ± 2.15 µM | 29.8 ± 2.85 µM | 34.4 ± 2.05 µM | 70% ^a | 15% ^a | 70% ^a | 15% ^a | 55% ^a | 40% ^a | 100% | – | – | – | – | – | – |
| COc1ccc(C(=O)NNC(=S)Nc2c3ccccc3nc3ccc(OC)cc23)cc1 [4c, 1-2′-methoxyl acridinyl-3-4′-methoxy benzoyl thiosemicarbazides] | 63.7 ± 2.59 µM | 21 ± 1.55 µM | 13.3 ± 1.37 µM | 52.4 ± 3.67 µM | 11.2 ± 2.51 µM | 19.4 ± 1.69 µM | 50% ^a | 45% ^a | 60% ^a | 25% ^a | 50% ^a | 35% ^a | – | – | – | – | – | – | – |
| COc1ccc2nc3ccccc3c(NC(=S)NNC(=O)c3ccc([N+](=O)[O-])cc3)c2c1 [4d, 1-2’-methoxyl acridinyl-3-4′-nitro benzoyl thiosemicarbazides] | 65.3 ± 3.82 µM | 35 ± 3.57 µM | 43.9 ± 2.59 µM | 40.5 ± 4.52 µM | 13 ± 1.64 µM | 25.1 ± 1.33 µM | – | – | – | – | – | – | – | – | – | – | – | – | – |
| Cc1ccc2[nH]c3ccccc3c(=NC(=S)NNC(=O)c3ccncc3)c2c1 [4f, 1-2′-methyl acridinyl-3-4′-pyridinamide thiourea] | 55.2 ± 1.36 µM | 11.2 ± 0.96 µM | 34.4 ± 2.24 µM | 53.7 ± 3.04 µM | 9.66 ± 1.54 µM | 10.1 ± 0.96 µM | 60% ^b | 10% ^b | 80% ^b | 20% ^b | 15% ^b | 85% ^b | 100% | – | – | – | – | – | – |
| Cc1ccc2nc3ccccc3c(NC(=S)NNC(=O)c3ccccc3)c2c1 [4g, 1-2′-methyl acridinyl-3-benzoyl thiosemicarbazides] | 70.1 ± 3.97 µM | 13.5 ± 1.59 µM | 20.2 ± 4.13 µM | 39 ± 2.05 µM | 25.8 ± 1.51 µM | 14.3 ± 1.52 µM | – | – | – | – | – | – | – | – | – | – | – | – | – |
| Cc1ccc2nc3ccccc3c(NC(=S)NNC(=O)c3ccc([N+](=O)[O-])cc3)c2c1 [4i, 1-2′-methyl acridinyl-3-4’-nitro benzoyl thiosemicarbazides] | 60.7 ± 2.31 µM | 22.3 ± 1.35 µM | 23.3 ± 1.33 µM | 60.4 ± 2.95 µM | 9.89 ± 1.45 µM | 11.8 ± 1.38 µM | – | – | – | – | – | – | – | – | – | – | – | – | – |
| Cc1ccc2nc3ccccc3c(NC(=S)NNC(=O)c3ccc(Cl)cc3)c2c1 [4j, 1-2′-methyl acridinyl-3-4′-chloro benzoyl thiosemicarbazides] | 61.5 ± 1.85 µM | 16.4 ± 1.56 µM | 24.4 ± 3.53 µM | 32.2 ± 2.36 µM | 19.9 ± 1.32 µM | 20.5 ± 1.39 µM | – | – | – | – | – | – | – | – | – | – | – | – | – |
| O=c1[nH]cc(F)c(=O)[nH]1 [5-FU, 5-fluorouracil, reference compound] | – | – | – | – | – | – | – | – | – | – | – | – | – | 25.4 ± 1.27 µM | 30.4 ± 2.87 µM | 34.5 ± 1.18 µM | 44 ± 0.54 µM | 32 ± 1.23 µM | 40.1 ± 1.65 µM |
| COC1=CC2C(=Nc3nnc(-c4ccncc4)s3)c3ccccc3NC2C=C1 (centres unmarked) [6a, 7-methoxy-N-(5-(pyridin-4-yl)-1,3,4-thiadiazol-2-yl)-10,10a-dihydroacridin-9(8aH)-imine] | – | – | – | – | – | – | 15% ^b | 0% | 95% ^b | 0% | 90% ^b | 5% ^b | – | 68.8 ± 1.87 µM | 14.3 ± 1.29 µM | 19.2 ± 1.3 µM | 25.3 ± 3.57 µM | 10.2 ± 0.96 µM | 40.2 ± 2.74 µM |
| N.N.[Cl][Pt][Cl] [cis-platinum, reference compound] | 10.8 ± 0.34 µM | 16 ± 1.53 µM | 10 ± 0.52 µM | 7.13 ± 1.24 µM | 9.13 ± 1.54 µM | 21.4 ± 1.25 µM | – | – | – | – | – | – | – | – | – | – | – | – | – |
